# Experiments:
# [1] = test system: P-glycoprotein (P-gp) and breast cancer resistance protein (BCRP); assay: PET imaging in mice pretreated with elacridar; format: in vivo; settings: elacridar 3 mg/kg, 20 min prior to radioligand injection
# Procedure: To determine whether [^18F]3 is actively effluxed by BBB transporters such as P-glycoprotein (P-gp) and breast cancer resistance protein (BCRP), we conducted additional PET scans in mice pretreated with elacridar (3 mg/kg, a dual P-gp/BCRP inhibitor) 20 min prior to radioligand injection.
# Figure S4. Mice PET imaging studies (0−60 minutes) of [ 18F]3. (A) TACs of [ 18F]3 in the whole-brain under baseline and elacridar-blocking (3 mg/kg) conditions; (B) Area under curve of [ 18F]3 in the whole-brain; All data were referred to as mean ± SD, n = […]
# The molar activities of [18F]3 and [18F]4 were determined using calibration curves, which were generated by plotting the concentration of the authentic standard compounds 3 or 4 against their respective flow injection analysis peak area ratios ([…]). Based on these calibration curves, the molar activities of [18F]3 and [18F]4 were calculated and reported as GBq/µmol.
# Figure S5. Calibration curves of compounds 3 (A) and 4 (B). The standard curve was generated by plotting the HPLC UV signal area against concentrations of the compounds 3 or 4. Linear regression analysis was performed to determine the correlation between peak area and […]
# [2] = In vitro stability in serum, NHPs; format: in vitro ADME, nonhuman primates (NHPs); settings: NHP serum, 37 °C, 30, 60 and 90 min
# Procedure: (§1) To assess the stability of [^18F]3, in vitro radioactivity analyses were conducted following 30-, 60- and 90 min coincubation of the radioligand in the serum and liver microsomes from mice, nonhuman primates (NHPs), and humans (Figure ).
# (§2) Serum from mice, NHPs, and humans were warmed to room temperature, 15 MBq of [^18F]3 was added to 0.4 mL of each species’ serum. The mixtures were incubated at 37 °C and 0.1 mL of mixture was transferred into 0.2 mL cold acetonitrile at 30, 60, and 90 min. The samples were vortexed for 15 s and then centrifuged at 10,000g for 5 min. The supernatant was analyzed using analytical HPLC (Agilent 1100 series HPLC system on Phenomenex Luna C-18 column (4.6 × 150 mm), mobile phase 30% CH3CN/0.1% TFA in water, flow:1 mL/min). For microsomes studies, a mixture of microsomes (0.5 mg/mL), [^18F]3 (15 MBq), 0.35 mL of PBS, 0.05 mL of NADPH regenerating system A, and 0.01 mL of NADPH regenerating system B were incubated at 37 °C. The subsequent steps followed the same procedure as described above.
# H3R = molecular target: T1, H3R (Mus musculus, UniProt P58406); assay: Dynamic PET imaging in CD1 mice, baseline and H3R antagonist blocking; format: in vivo; settings: for V T, cerebellum / V T, cortex / V T, hippocampus / V T, striatum / V T, thalamus / V T, whole brain: Logan analysis, IDIF
# T1 construct: dynamic PET imaging studies were conducted in CD1 mice; from tissue; host or cells: brain of living CD1 mice
# Procedure: To elucidate the in vivo brain uptake of [^18F]3 and [^18F]4, dynamic PET imaging studies were conducted in CD1 mice (an outbred strain of immunocompetent mice commonly used for pharmacokinetic and biodistribution studies) for 60 min. The results, which include summed PET images (0–60 min), whole-brain time-activity curves (TACs), and area under the curve (AUC) for both radioligands, are depicted in Figures and . At baseline, [^18F]3 rapidly crossed the BBB following intravenous injection, reaching peak whole-brain uptake with a standardized uptake value (SUV) value of 2.4 at 2.3 min. This was followed by a gradual washout and reached a SUV of 1.87 by 60 min. To evaluate the binding characteristics of [^18F]3, elective H3R antagonists with distinct structural scaffolds, GSK189254, enerisant, and cipralisant, were used as blocking agents. […] Quantification of specific tracer binding was performed using volume of distribution (V T) values, derived from compartmental modeling and an image-derived input function (IDIF). […] While these findings support the utility of [^18F]3 for in vivo studies, we acknowledge the inherent limitations of IDIF, including the lack of metabolite correction and potential inaccuracies in capturing early phase kinetics.
# PET imaging was conducted following previously reported methods. CD1 mice (5–6 weeks) were anesthetized with 1.5% (v/v) isoflurane during the scan. A dose of 3.0 MBq of [^18F]3 or [^18F]4 was intravenously injected into the tail vein, and a dynamic scan was acquiring using a PET scanner (MOLECUBES, beta-cube) for 60 min. In the blocking studies, GSK189254 (3 mg/kg) in 0.1 mL of saline containing 5% ethanol and 5% Tween-80 was preinjected for 10 min prior to the injection of PET radioligands. The results were reconstructed and analyzed by PMOD 4.3 software.
# Quantification of specific tracer binding was performed using volume of distribution (VT) values, derived from compartmental modeling and an image-derived input […]
# significant reduction in H3R-rich brain regions such as the cortex and striatum under blocking conditions with GSK189254, enerisant, and cipralisant, confirming the specificity of [18F]3 binding (Table S1).
# Table S1. Estimation of V T values by Logan analysis in mice with [ 18F]3 at baseline, GSK189254-blocking (3 mg/kg), enerisant-blocking (3 mg/kg), and cipralisant-blocking (3 mg/kg) conditions.
# Group Baseline GSK189254 Enerisant Cipralisant blocking blocking blocking
# [3] = In vitro stability in serum, mice; format: in vitro ADME; settings: 37 °C, 30, 60 and 90 min
# Procedure: as §1, §2
# [4] = mice pretreated with GSK189254 (3 mg/kg)
# T1 sequence (P58406 whole entry): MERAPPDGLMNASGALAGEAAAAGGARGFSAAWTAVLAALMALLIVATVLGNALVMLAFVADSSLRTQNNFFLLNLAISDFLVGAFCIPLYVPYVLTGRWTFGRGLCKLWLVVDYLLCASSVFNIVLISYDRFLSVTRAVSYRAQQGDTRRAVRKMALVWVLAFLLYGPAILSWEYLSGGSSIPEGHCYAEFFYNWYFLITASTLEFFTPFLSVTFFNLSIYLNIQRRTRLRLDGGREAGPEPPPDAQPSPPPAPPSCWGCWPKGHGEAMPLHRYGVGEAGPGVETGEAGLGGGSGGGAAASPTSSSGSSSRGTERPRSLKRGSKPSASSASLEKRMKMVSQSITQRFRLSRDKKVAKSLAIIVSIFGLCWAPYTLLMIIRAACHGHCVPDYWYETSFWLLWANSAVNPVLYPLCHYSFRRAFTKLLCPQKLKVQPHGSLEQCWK
smiles,measurement,setting,value
O=C([C@H]1C[C@@H]1c1ccc([18F])cc1)N1CCN(C2CCCC2)CC1 [[^18F]3],change of brain uptake after elacridar pretreatment,[1],did not significantly change
same,parent compound remaining intact in serum,[2],over 95%
same,"whole-brain signal reduction based on AUC, GSK189254 blocking","H3R; GSK189254 3 mg/kg, 0–60 min",32.5%
same,"V T, cerebellum",H3R; GSK189254 blocking 3 mg/kg,3.85 ± 0.61
same,"V T, cortex",H3R; GSK189254 blocking 3 mg/kg,2.17 ± 0.08
same,"V T, hippocampus",H3R; GSK189254 blocking 3 mg/kg,3.77 ± 0.47
same,"V T, striatum",H3R; GSK189254 blocking 3 mg/kg,2.91 ± 0.05
same,"V T, thalamus",H3R; GSK189254 blocking 3 mg/kg,3.90 ± 0.90
same,"V T, whole brain",H3R; GSK189254 blocking 3 mg/kg,3.40 ± 0.44
same,"V T, cerebellum",H3R; baseline,5.59 ± 0.37
same,"V T, cortex",H3R; baseline,4.82 ± 0.09
same,"V T, hippocampus",H3R; baseline,5.80 ± 0.05
same,"V T, striatum",H3R; baseline,5.64 ± 0.02
same,"V T, thalamus",H3R; baseline,6.71 ± 0.05
same,"V T, whole brain",H3R; baseline,5.29 ± 0.52
same,"V T, cerebellum",H3R; cipralisant blocking 3 mg/kg,2.94 ± 0.33
same,"V T, cortex",H3R; cipralisant blocking 3 mg/kg,2.38 ± 0.34
same,"V T, hippocampus",H3R; cipralisant blocking 3 mg/kg,2.61 ± 0.32
same,"V T, striatum",H3R; cipralisant blocking 3 mg/kg,2.67 ± 0.33
same,"V T, thalamus",H3R; cipralisant blocking 3 mg/kg,2.78 ± 0.40
same,"V T, whole brain",H3R; cipralisant blocking 3 mg/kg,2.61 ± 0.30
same,"V T, cerebellum",H3R; enerisant blocking 3 mg/kg,3.73 ± 0.16
same,"V T, cortex",H3R; enerisant blocking 3 mg/kg,3.18 ± 0.12
same,"V T, hippocampus",H3R; enerisant blocking 3 mg/kg,3.84 ± 0.19
same,"V T, striatum",H3R; enerisant blocking 3 mg/kg,3.48 ± 0.27
same,"V T, thalamus",H3R; enerisant blocking 3 mg/kg,4.11 ± 0.26
same,"V T, whole brain",H3R; enerisant blocking 3 mg/kg,3.58 ± 0.18
same,time of peak whole-brain uptake,"H3R; baseline, CD1 mice",2.3 min
same,whole-brain uptake at 60 min,"H3R; baseline, CD1 mice",1.87 SUV
same,peak whole-brain uptake,"H3R; baseline, intravenous injection, CD1 mice",2.4 SUV
same,"whole-brain AUC reduction, cipralisant blocking","H3R; cipralisant 3 mg/kg, 0–60 min",38.4%
same,"whole-brain AUC reduction, enerisant blocking","H3R; enerisant 3 mg/kg, 0–60 min",35.6%
same,brain radioactivity at 60 min,H3R; [4],1.27 SUV
same,peak brain radioactivity,H3R; [4],1.98 SUV
same,time of peak brain radioactivity,H3R; [4],1.9 min
same,parent compound remaining intact in serum,[3],over 95%

# Reference: publication PMC12362585, “Development and Preclinical Characterization of [^18F]H3-2406 and [^18F]H3-2407 for Positron Emission Tomography Imaging of the Histamine Subtype‑3 Receptor” (Journal of Medicinal Chemistry, 2025)
